# Reference: patent US11339144B2 (Navitor Pharmaceuticals, Inc., priority 2017, dated 2022)
# Target: HA-GST-Rheb (GTP-γ-S loaded) activating mTORC1 (Homo sapiens (Human), UniProt Q15382)
# Experiment: Rheb-dependent in vitro kinase assay (Rheb-IVK; LanthaScreen or Western readout)
# Format: biochemical
# Parameters: IVK IC50 (μM): scale not given here
# Conditions: Rheb-dependent in vitro kinase assay
# HA-GST-Rheb (GTP-γ-S loaded) activating mTORC1, sequence (Q15382 1-181): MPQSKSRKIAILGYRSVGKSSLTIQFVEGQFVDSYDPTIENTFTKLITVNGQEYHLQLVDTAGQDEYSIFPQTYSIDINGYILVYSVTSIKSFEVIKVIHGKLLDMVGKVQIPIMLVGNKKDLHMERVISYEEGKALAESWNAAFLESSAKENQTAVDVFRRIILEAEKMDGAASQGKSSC
row,IVK IC50 (μM),Structure (SMILES)
1,E/F,Cc1cc(Oc2ccccc2)cc2c1cc(CO)n2Cc1nc[nH]n1 [I-234]

# Same assay, conditions: Rheb-dependent in vitro kinase assay; read-out: IVK IC50
row,IC50,Structure (SMILES)
1,10 to 100 µM,"OCc1nc2c(OC[C@H]3CCCC[C@@H]3O)c(Cl)c(Cl)cc2[nH]1 (racemic) [I-383, (+,−)-trans-2-((5,6-dichloro-2-(hydroxymethyl)-1H-benzo[d]imidazol-4-yloxy)methyl)cyclohexanol]"
2,100 to 300 µM,"Cn1c(CO)nc2c(OC[C@H]3CCCC[C@@H]3O)c(Cl)c(Cl)cc21 (racemic) [I-387, (+,−)-trans-2-((5,6-dichloro-2-(hydroxymethyl)-1-methyl-1H-benzo[d]imidazol-4-yloxy)methyl)cyclohexanol]"
3,10 to 100 µM,"OCc1nc2c(OC[C@H]3CCCC[C@@H]3O)c(Cl)c(Cl)cc2n1Cc1nn[nH]n1 (racemic) [I-391, (+,−)-trans-2-((1-((2H-tetrazol-5-yl)methyl)-5,6-dichloro-2-(hydroxymethyl)-1H-benzo[d]imidazol-4-yloxy)methyl)cyclohexanol]"
4,> 100 µM,COC(=O)c1cc2c(Sc3ccc(Cl)cc3Cl)cc(Cl)cc2n1Cc1ccc(Br)cc1 [I-104]
5,100 to 300 µM,"COc1ccc(Sc2cc(Cl)cc3[nH]c(C(=O)O)cc23)cc1OC [I-138, 6-chloro-4-(3,4-dimethoxyphenylthio)-1H-indole-2-carboxylic acid]"
6,> 100 µM,OCc1cc2c(Cl)cc(Oc3ccccc3)cc2n1Cc1c[nH]cn1 [I-174]
7,> 100 µM,O=C(c1ccc(Cl)cc1)c1cccc2[nH]ccc12 [I-178]
8,> 100 µM,Clc1ccc(Cc2cccc3[nH]ccc23)cc1 [I-179]
9,> 100 µM,OCc1cc2cc(Sc3ccccc3)ccc2n1Cc1nc[nH]n1 [I-181]
10,> 100 µM,OCc1ccc(Sc2cccc3[nH]ccc23)cc1 [I-183]
11,> 100 µM,CNC(=O)c1ccc(Sc2cccc3[nH]ccc23)cc1 [I-184]
12,> 100 µM,COC(=O)c1ccc(Sc2cccc3[nH]ccc23)cc1 [I-188]
13,> 100 µM,c1cnc(Nc2cccc3[nH]ccc23)nc1 [I-189]
14,> 100 µM,Clc1ccc(CSc2cccc3[nH]ccc23)cc1Cl [I-191]
15,> 100 µM,O=C(O)c1ccc(Sc2cccc3[nH]ccc23)cc1 [I-192]
16,> 100 µM,O=C(O)c1cc(Sc2ccc(Cl)cc2)c2cc[nH]c2c1 [I-193]
17,> 100 µM,COc1cccc(Sc2cccc3[nH]ccc23)c1 [I-195]
18,10 to 100 µM,"Clc1ccc(Sc2cccc3c2ccn3Cc2nc[nH]n2)cc1 [I-196, 1-((1H-1,2,4-triazol-3-yl)methyl)-4-(4-chlorophenylthio)-1H-indole]"
19,> 100 µM,COC(=O)c1cc(Sc2ccc(Cl)cc2)c2cc[nH]c2c1 [I-197]
20,> 100 µM,OCc1cc2c(C3CCNCC3)cc(Oc3ccccc3)cc2[nH]1 [I-199]
21,> 100 µM,Clc1ccc(Sc2cc(Sc3ccc(Cl)cc3)c3cc[nH]c3c2)cc1 [I-200]
22,10 to 100 µM,"Clc1ccc(Sc2cc(Cl)c3cc[nH]c3c2)cc1 [I-201, 4-chloro-6-(4-chlorophenylthio)-1H-indole]"
23,> 100 µM,Cc1cc2c(Sc3ccc(Cl)cc3)cccc2[nH]1 [I-203]

row,IC50,Structure (SMILES)
1,> 100 µM,Cn1ccc2c(Sc3ccc(Cl)cc3)cc(Cl)cc21 [I-205]
2,> 100 µM,Cn1c(CO)cc2c(Sc3ccc(Cl)cc3)cc(Cl)cc21 [I-206]
3,> 100 µM,c1ccc(Sc2cccc3[nH]ccc23)nc1 [I-210]
4,> 100 µM,Clc1ccc(Sc2cccc3[nH]ccc23)cc1Cl [I-211]
5,> 100 µM,Cn1ccc(-c2cc(Oc3ccccc3)cc3[nH]c(CO)cc23)n1 [I-213]
6,> 100 µM,OCc1cc2ccc(Oc3ccccc3)cc2n1Cc1nc[nH]n1 [I-214]
7,> 100 µM,Clc1ccc(Sc2cccc3cc[nH]c23)cc1 [I-217]
8,> 100 µM,OCc1cc2c(C3CCCNC3)cc(Oc3ccccc3)cc2[nH]1 (stereo not drawn) [I-219]
9,> 100 µM,OCc1cc2c(Br)cc(Oc3ccccc3)cc2n1Cc1ccc(-c2nn[nH]n2)cc1 [I-221]
10,> 100 µM,OCc1cc2c(C3CCCCC3)cc(Oc3ccccc3)cc2[nH]1 [I-223]
11,> 100 µM,OCc1cc2c(Br)cc(OCc3ccccc3)cc2n1Cc1ccccc1 [I-224]
12,> 100 µM,OCc1cc2c(Br)cc(Oc3ccccc3)cc2n1Cc1nc[nH]n1 [I-225]
13,> 100 µM,Cn1cc(-c2cc(Oc3ccccc3)cc3[nH]c(CO)cc23)cn1 [I-227]
14,> 100 µM,Clc1cccc(Cl)c1Oc1cccc2[nH]ccc12 [I-228]
15,> 100 µM,[O-][S+](c1ccccc1)c1cc(Br)c2cc(CO)[nH]c2c1 (stereo not drawn) [I-229]
16,> 100 µM,O=S(=O)(c1ccccc1)c1cc(Br)c2cc(CO)[nH]c2c1 [I-230]
17,> 100 µM,[O-][S+](c1ccccc1Cl)c1cccc2[nH]ccc12 (stereo not drawn) [I-231]
18,> 100 µM,O=S(=O)(c1ccccc1Cl)c1cccc2[nH]ccc12 [I-232]
19,> 100 µM,[O-][S+](c1cccc(Cl)c1)c1cccc2[nH]ccc12 (stereo not drawn) [I-233]
20,> 100 µM,Cc1cc(Oc2ccccc2)cc2[nH]c(CO)cc12 [I-238]
21,> 100 µM,O=S(=O)(c1cccc(Cl)c1)c1cccc2[nH]ccc12 [I-240]
22,> 100 µM,O=S(=O)(c1ccc(Cl)cc1)c1cccc2[nH]ccc12 [I-242]
23,> 100 µM,Cc1cc(Oc2ccccc2)cc2c1cc(CO)n2C [I-245]

row,IC50,Structure (SMILES)
1,> 100 µM,O=C(O)CCc1cc2c(Oc3ccccc3)c(Cl)ccc2[nH]1 [I-253]
2,> 100 µM,Clc1cc2cc[nH]c2cc1Oc1ccccc1 [I-258]
3,> 100 µM,Cn1c(CO)cc2c(Oc3ccc(Cl)cc3)cccc21 [I-259]
4,> 100 µM,CC(=O)OCCc1cc2c(Oc3ccccc3)c(Cl)ccc2[nH]1 [I-260]
5,> 100 µM,Cn1c(CO)cc2c(Oc3cccc(F)c3)cccc21 [I-262]
6,> 100 µM,OCc1cc2c(Oc3cccc(F)c3)cccc2[nH]1 [I-264]
7,> 100 µM,Cn1ccc2c(Oc3ccc(F)cc3)cccc21 [I-265]
8,> 100 µM,Cn1ccc2c(Oc3cccc(F)c3)cccc21 [I-266]
9,> 100 µM,Cn1ccc2c(Oc3ccc(Cl)cc3)cccc21 [I-268]
10,> 100 µM,Cn1ccc2c(Oc3ccccc3Cl)cccc21 [I-269]
11,> 100 µM,Cn1ccc2c(Oc3cccc(Cl)c3)cccc21 [I-270]
12,> 100 µM,Cn1c(CO)cc2c(Oc3ccccc3Cl)cccc21 [I-272]
13,> 100 µM,Cn1c(CO)cc2c(Oc3ccc(F)cc3)cccc21 [I-273]
14,> 100 µM,Cn1c(CO)cc2c(Oc3ccccc3F)cccc21 [I-274]
15,100 to 300 µM,"OCc1cc2c(Oc3ccccc3Cl)cccc2[nH]1 [I-276, (4-(2-chlorophenoxy)-1H-indol-2-yl)methanol]"
16,300 to 800 µM,"OCc1cc2c(Oc3ccccc3F)cccc2[nH]1 [I-277, (4-(2-fluorophenoxy)-1H-indol-2-yl)methanol]"
17,300 to 800 µM,"OCc1cc2c(Oc3ccc(F)cc3)cccc2[nH]1 [I-278, (4-(4-fluorophenoxy)-1H-indol-2-yl)methanol]"
18,> 100 µM,OCc1cc2c(OCCc3ccccc3)cc(Cl)cc2[nH]1 [I-279]
19,> 100 µM,Cn1c(CO)cc2c(Oc3ccccc3)cccc21 [I-280]
20,> 100 µM,Cn1c(CO)cc2c(Oc3ccccc3)cc(Cl)cc21 [I-281]
21,10 to 100 µM,"Clc1cccc(Oc2cccc3[nH]ccc23)c1 [I-284, 4-(3-chlorophenoxy)-1H-indole]"
22,> 100 µM,Clc1ccccc1Oc1cccc2[nH]ccc12 [I-285]
23,300 to 800 µM,"OCc1cc2ccc(Oc3ccccc3)cc2[nH]1 [I-286, (6-Phenoxy-1H-indol-2-yl)methanol]"

row,IC50,Structure (SMILES)
1,> 100 µM,OCc1cc2c(Oc3ccccc3)cccc2[nH]1 [I-287]
2,> 100 µM,Cn1c(CO)cc2c(Oc3ccccc3)c(Cl)ccc21 [I-289]
3,> 100 µM,Cn1c(CO)cc2c(OCc3ccccc3)cc(Cl)cc21 [I-292]
4,> 100 µM,OCc1cc2c(OCc3ccccc3)cc(Cl)cc2[nH]1 [I-294]
5,300 to 800 µM,"Cn1ccc2c(NC3CCNCC3)cccc21 [I-297, 1-methyl-N-(piperidin-4-yl)-1H-indol-4-amine]"
6,> 100 µM,Cn1ccc2c(NC3CCCNC3)cccc21 (stereo not drawn) [I-298]
7,> 3 µM,"Clc1cc2nc(-c3ccncc3)[nH]c2c(Cl)c1Cl [I-353, 5,6,7-trichloro-2-(pyridin-4-yl)-1H-benzo[d]imidazole]"
8,> 100 µM,OCc1nc2c(OC[C@H]3CCCC[C@@H]3O)c(Cl)c(Cl)cc2n1Cc1nc[nH]n1 [I-392]
9,> 100 µM,OCc1nc2c(OC[C@H]3CCCC[C@@H]3O)c(Cl)c(Cl)cc2n1Cc1cc(Cl)ccc1Cl [I-393]
10,> 100 µM,OCc1nc2ccc(Oc3ccccc3)cc2n1Cc1nc[nH]n1 [I-397]
11,> 100 µM,OCc1nc2c(OCC3CCCCO3)c(Cl)c(Cl)cc2[nH]1 (stereo not drawn) [I-398]
12,100 to 300 µM,"OCc1nc2c(OCC3CCCO3)c(Cl)c(Cl)cc2[nH]1 (stereo not drawn) [I-400, (5,6-dichloro-4-((tetrahydrofuran-2-yl)methoxy)-1H-benzo[d]imidazol-2-yl) methanol bis (2,2,2-trifluoroacetate)]"
13,> 100 µM,CCn1c(CO)nc2cc(OCc3cccc(Cl)c3)c(Cl)cc21 [I-401]
14,> 100 µM,OCc1nc2cc(Cl)c(OCc3ccccc3)cc2n1Cc1nc[nH]n1 [I-402]
15,100 to 300 µM,"OCc1nc2cc(OCc3ccccc3)c(Cl)cc2n1Cc1nc[nH]n1 [I-403, (1-((1H-1,2,4-triazol-3-yl)methyl)-5-(benzyloxy)-6-chloro-1H-benzo[d]imidazol-2-yl)methanol]"
16,> 100 µM,OCc1nc2c(Oc3ccccc3)cc(Cl)cc2[nH]1 [I-404]
17,> 100 µM,OCc1nc2c(OCc3cncnc3O)c(Cl)c(Cl)cc2[nH]1 [I-405]
18,> 100 µM,OCc1nc2c(Br)cc(Oc3ccccc3)cc2n1Cc1nc[nH]n1 [I-406]
19,> 100 µM,"OCc1nc2c(Oc3ccccc3Cl)cccc2n1Cc1nc[nH]n1 [I-407, (1-((1H-1,2,4-triazol-3-yl)methyl)-4-(2-chlorophenoxy)-1H-benzo[d]imidazol-2-yl)methanol]"
20,> 100 µM,OCc1nc2c(Oc3ccc(Cl)cc3)cccc2n1Cc1nc[nH]n1 [I-408]
21,> 100 µM,Nc1ncncc1COc1c(Cl)c(Cl)cc2[nH]c(CO)nc12 [I-409]
22,> 100 µM,Clc1ccc2c(c1)nc(-c1ncco1)n2Cc1ccc(-c2nn[nH]n2)cc1 [I-410]

row,Structure (SMILES),IC50
1,OCc1nc2c(OCCc3c[nH]cn3)c(Cl)c(Cl)cc2[nH]1 [I-384],> 100 µM
